Data as given in patent US20250228239A1, “MOLECULES HAVING PESTICIDAL UTILITY, AND INTERMEDIATES, COMPOSITIONS, AND PROCESSES, RELATED THERETO” (priority 2024, published 2025).

What was measured:
[1] = tested on: Cabbage Looper (Trichoplusia ni, TRIPNI); experiment: Bioassays on Cabbage Looper (CL), 128-well diet tray assay; format: in vivo; conditions: Trichoplusia ni; Table ABC: Biological Results; species CL; read-out: CL
Protocol: (§1) Certain molecules disclosed in this document were tested against BAW and CL using procedures described in the following examples. In the reporting of the results, the “BAW & CL Rating Table” was used (See Table Section).
Bioassays on CL were conducted using a 128-well diet tray assay. One to five second instar CL larvae were placed in each well (3 mL) of the diet tray that had been previously filled with 1 mL of artificial diet to which 50 μg/cm^2 of the test molecule (dissolved in 50 μL of 90:10 acetone-water mixture) had been applied (to each of eight wells) and then allowed to dry. Trays were covered with a clear self-adhesive cover, vented to allow gas exchange, and held at 25° C., 14:10 light-dark for five to seven days. Percent mortality was recorded for the larvae in each well; activity in the eight wells was then averaged. The results are indicated in the table entitled “Table ABC: Biological Results” (See Table Section).

[2] = tested on: Beet Armyworm (Spodoptera exigua, LAPHEG); experiment: Bioassays on Beet Armyworm (BAW), 128-well diet tray assay; format: in vivo; conditions: Spodoptera exigua; Table ABC: Biological Results; species BAW; read-out: BAW
Protocol: as §1
Bioassays on BAW were conducted using a 128-well diet tray assay. One to five second instar BAW larvae were placed in each well (3 mL) of the diet tray that had been previously filled with 1 mL of artificial diet to which 50 μg/cm^2 of the test molecule (dissolved in 50 μL of 90:10 acetone-water mixture) had been applied (to each of eight wells) and then allowed to dry. Trays were covered with a clear self-adhesive cover, vented to allow gas exchange, and held at 25° C., 14:10 light-dark for five to seven days. Percent mortality was recorded for the larvae in each well; activity in the eight wells was then averaged. The results are indicated in the table entitled “Table ABC: Biological Results” (See Table Section).

Structure (SMILES) | pest or weed control at 50 µg/cm2 [1] | pest or weed control at 50 µg/cm2 [2]
CC(=O)Nc1c(C)ccc(NC(=O)c2cc(NC(=O)[C@H]3[C@H](c4cc(Cl)cc(Cl)c4)C3(Cl)Cl)ccc2Cl)c1C (relative stereo) [F1128, trans-N-(3-Acetamido-2,4-dimethylphenyl)-2-chloro-5-(2,2-dichloro-3-(3,5-dichlorophenyl)cyclopropane-1-carboxamido)benzamide] | 50 to 100% | 50 to 100%
O=C(Nc1cc(F)c(NC(=O)C(Cl)(Cl)Cl)c(F)c1)c1cc(NC(=O)[C@H]2[C@H](c3ccc(Cl)c(Cl)c3)C2(Cl)Cl)ccc1Cl (relative stereo) [F1146, trans-2-Chloro-5-(2,2-dichloro-3-(3,4-dichlorophenyl)cyclopropane-1-carboxamido)-N-(3,5-difluoro-4-(2,2,2-trichloroacetamido)phenyl)benzamide] | 50 to 100% | 50 to 100%
O=C(Nc1ccc(F)cc1F)c1cc(NC(=O)[C@H]2[C@@H](c3cc(Cl)c(Cl)c(C(F)(F)F)c3)C2(Cl)Cl)ccc1Cl (relative stereo) [F1148, cis-2-Chloro-5-(2,2-dichloro-3-(3,4-dichloro-5-(trifluoromethyl)phenyl)cyclopropane-1-carboxamido)-N-(2,4-difluorophenyl)benzamide] | 50 to 100% | 50 to 100%
Cc1cc(NC(=O)[C@H]2[C@H](c3ccc(F)c(Cl)c3)C2(Cl)Cl)cc(C(=O)Nc2ccc(F)c(N)c2F)c1F (relative stereo) [F1151, trans-N-(3-Amino-2,4-difluorophenyl)-5-(2,2-dichloro-3-(3-chloro-4-fluorophenyl)cyclopropane-1-carboxamido)-2-fluoro-3-methylbenzamide] | 50 to 100% | 50 to 100%
Nc1c(F)ccc(NC(=O)c2cc(NC(=O)[C@H]3[C@H](c4ccc(F)c(Cl)c4)C3(Cl)Cl)cc(F)c2Cl)c1F (relative stereo) [F1156, trans-N-(3-Amino-2,4-difluorophenyl)-2-chloro-5-(2,2-dichloro-3-(3-chloro-4-fluorophenyl)cyclopropane-1-carboxamido)-3-fluorobenzamide] | 50 to 100% | 50 to 100%
Cc1cc(NCCC(N)=O)ccc1NC(=O)c1cc(NC(=O)[C@H]2[C@H](c3cc(Cl)cc(Cl)c3)C2(Cl)Cl)ccc1Cl (relative stereo) [F1158, trans-N-(4-((3-Amino-3-oxopropyl)amino)-2-methylphenyl)-2-chloro-5-(2,2-dichloro-3-(3,5-dichlorophenyl)cyclopropane-1-carboxamido)benzamide] | 50 to 100% | 50 to 100%
COCCN(C(=O)OC(C)(C)C)c1ccc(NC(=O)c2cc(NC(=O)[C@H]3[C@H](c4cc(Cl)cc(Cl)c4)C3(Cl)Cl)ccc2Cl)c(C)c1 (relative stereo) [F1159, trans-tert-Butyl-(4-(2-chloro-5-(2,2-dichloro-3-(3,5-dichlorophenyl)cyclopropane-1-carboxamido)benzamido)-3-methylphenyl)(2-methoxyethyl)carbamate] | 50 to 100% | 50 to 100%
Cc1cc(NCc2ccc(C(F)(F)F)cc2)ccc1NC(=O)c1cc(NC(=O)[C@H]2[C@H](c3cc(Cl)cc(Cl)c3)C2(Cl)Cl)ccc1Cl (relative stereo) [F1165, trans-2-Chloro-5-(2,2-dichloro-3-(3,5-dichlorophenyl)cyclopropane-1-carboxamido)-N-(2-methyl-4-((4-(trifluoromethyl)benzyl)amino)phenyl)benzamide] | 50 to 100% | 50 to 100%
Nc1c(F)ccc(NC(=O)c2cc(NC(=O)[C@H]3[C@@H](c4cc(F)c(Cl)c(C(F)(F)F)c4)C3(Cl)Cl)ccc2Cl)c1F (relative stereo) [F1168, cis-N-(3-Amino-2,4-difluorophenyl)-2-chloro-5-(2,2-dichloro-3-(4-chloro-3-fluoro-5-(trifluoromethyl)phenyl)cyclopropane-1-carboxamido)benzamide] | 50 to 100% | 50 to 100%
COc1c(F)ccc(NC(=O)c2cc(NC(=O)[C@H]3[C@H](c4cc(Cl)cc(Cl)c4)C3(Cl)Cl)ccc2Cl)c1F (relative stereo) [F1171, trans-2-chloro-5-(2,2-dichloro-3-(3,5-dichlorophenyl)cyclopropane-1-carboxamido)-N-(2,4-difluoro-3-methoxyphenyl)benzamide] | 50 to 100% | 50 to 100%
Cc1cc(NCCc2ccccc2)ccc1NC(=O)c1cc(NC(=O)[C@H]2[C@H](c3cc(Cl)cc(Cl)c3)C2(Cl)Cl)ccc1Cl (relative stereo) [F1177, trans-2-Chloro-5-(2,2-dichloro-3-(3,5-dichlorophenyl)cyclopropane-1-carboxamido)-N-(2-methyl-4-(phenethylamino)phenyl)benzamide] | 50 to 100% | 50 to 100%
Cc1cc(NCC(C)c2ccccc2)ccc1NC(=O)c1cc(NC(=O)[C@H]2[C@H](c3cc(Cl)cc(Cl)c3)C2(Cl)Cl)ccc1Cl (relative stereo) [F1178, trans-2-Chloro-5-(2,2-dichloro-3-(3,5-dichlorophenyl)cyclopropane-1-carboxamido)-N-(2-methyl-4-((2-phenylpropyl)amino)phenyl)benzamide] | 50 to 100% | 50 to 100%
O=C(Nc1ccccc1)c1cc(NC(=O)[C@H]2[C@H](c3ccc(F)c(Cl)c3)C2(Cl)Cl)cc(Cl)c1F (relative stereo) [F1194, trans-3-Chloro-5-(2,2-dichloro-3-(3-chloro-4-fluorophenyl)cyclopropane-1-carboxamido)-2-fluoro-N-phenylbenzamide] | 50 to 100% | 50 to 100%
O=C(Nc1ccc(F)cc1)c1cc(NC(=O)[C@H]2[C@H](c3ccc(F)c(Cl)c3)C2(Cl)Cl)cc(Cl)c1F (relative stereo) [F1195, trans-3-Chloro-5-(2,2-dichloro-3-(3-chloro-4-fluorophenyl)cyclopropane-1-carboxamido)-2-fluoro-N-(4-fluorophenyl)benzamide] | 50 to 100% | 50 to 100%
O=C(Nc1ccc(F)cc1F)c1cc(NC(=O)[C@H]2[C@H](c3ccc(F)c(Cl)c3)C2(Cl)Cl)cc(Cl)c1F (relative stereo) [F1196, trans-3-Chloro-5-(2,2-dichloro-3-(3-chloro-4-fluorophenyl)cyclopropane-1-carboxamido)-N-(2,4-difluorophenyl)-2-fluorobenzamide] | 50 to 100% | 50 to 100%
CC(=O)Nc1ccc(NC(=O)c2cc(NC(=O)[C@H]3[C@H](c4ccc(F)c(Cl)c4)C3(Cl)Cl)cc(Cl)c2F)cc1 (relative stereo) [F1197, trans-N-(4-Acetamidophenyl)-3-chloro-5-(2,2-dichloro-3-(3-chloro-4-fluorophenyl)cyclopropane-1-carboxamido)-2-fluorobenzamide] | 50 to 100% | 50 to 100%
Cc1cc(NC(=O)CCCN)ccc1NC(=O)c1cc(NC(=O)[C@H]2[C@H](c3ccc(Cl)c(Cl)c3)C2(Cl)Cl)ccc1Cl (relative stereo) [F1202, trans-N-(4-(4-Aminobutanamido)-2-methylphenyl)-2-chloro-5-(2,2-dichloro-3-(3,4-dichlorophenyl)cyclopropane-1-carboxamido)benzamide] | 50 to 100% | 50 to 100%
